# Data: patent US20260176249A1, “PROTEIN KINASE INHIBITOR, PREPARATION METHOD THEREFOR, AND APPLICATION THEREOF” (SHANDONG LUYE PHARMACEUTICAL CO., LTD., priority 2021, published 2026)
# Like-named read-outs stand apart in the source and are kept apart here.
# Key:
# PLK1 kinase = target: T1, PLK1 kinase (Homo sapiens, UniProt P53350); test: Inhibitory activity on PLK1 kinase; format: biochemical; conditions: for Imax: maximum effect caused by the compound at the test concentration
# T1 construct: purchased Carnabio (Carna Biosciences) 05-157
# Procedure: Detection solution PerkinElmer #TRF0218-M
# Detection instrument PerkinElemer EnVision
# a. Using the Echo machine, the compounds to be tested were diluted by 1:3 on a 384-well plate, and the highest concentration was 1 μM, with a total of 10 concentration points, and each concentration was tested in duplicate wells.
# b. 5 μL/well of PLK1 kinase and peptide substrate mixture were added to the assay plate (containing controls).
# d. The reaction was initiated by adding 5 μL/well of ATP solution;
# e. The assay plate was centrifuged at 1000 rpm for about 15 seconds, a film was used to seal the assay plate which was incubated at 23° C. for a period of time;
# f. A detection solution was added to all wells of the assay plate;
# g. The assay plate was centrifuged at 1000 rpm for approximately 15 seconds, a film was used to seal the assay plate which was incubated at 23° C. for 60 min.
# h. The assay plate was read on EnVision. The test results were analyzed using XLFIT5 software.
# Caco-2 cells = test: Permeability and efflux transporter substrate evaluation in Caco-2 cells; format: in vitro ADME; parameters: Papp A→B at 120 min / Papp B→A at 120 min / efflux ratio at 120 min / Papp at 120 min: dose or concentration left out as unconfirmed; conditions: Caco-2
# Procedure: (§1) The cells were cultured in a carbon dioxide incubator for 21-28 days before being used for transport experiments. During this period, the culture medium was changed every four to five days.
# (§2) This project uses Hank's balanced salt buffer (pH 7.40±0.05) containing 10 mM HEPES as the transport buffer. The culture medium was removed from the culture plate and the cells were washed twice with preheated transport buffer (approximately 75 μL and 40 mL of transport buffer for each apical well and basolateral receiver plate respectively). The donor solution and receiver solution were added to the corresponding cell plate wells (75 and 250 μL for each apical and basolateral well respectively), and the bidirectional transport experiment was started (apical to basolateral (A-B) and basolateral to apical (B-A)). The test concentration of the test substance was […], and two replicate wells were made for each dosing concentration. The test concentration of Digoxin was […], with dosing bidirectionally; the test concentrations of nadolol and metoprolol were both […], and they were dosed in one direction (A-B direction), and two replicate wells were made for each of the three control compounds.
# (§3) The initial donor solution is the TO sample. After adding the sample, it was mixed with the transport buffer and stop solution in a certain proportion.
# (§4) All samples were vortexed, and then centrifuged at 3220×g for 20 min at 20° C. A proper volume of supernatant was transferred to a sample assay plate, and the sample was stored at 2-8° C. if it was not analyzed immediately after the plate was sealed, and LC MS/MS method was used for analysis.
# (§5) The Lucifer Yellow Rejection Assay was used to test the integrity of the Caco-2 cell layer.
# (§6) The following formulas were used to calculate the apparent permeability coefficient (Papp, cm/s), efflux ratio (ER), and solution recovery (%) (% Solution Recovery).
# (§7) [formula] [formula] [formula] • VR is the volume of the receiver side solution (side A is 0.075 mL, side B is 0.25 mL); Area is the relative surface area of the cell monolayer (0.0804 cm^2); Time is the incubation time (7200 s); C0 is the initial concentration (nM) of the test substance at the donor side or the peak area ratio of the control compound; VD is the volume of the donor side (side A is 0.075 mL, side B is 0.25 mL); CD and CR are the final concentration (nM) of the test substance at the donor side and the receiver side respectively or the peak area ratio of the control compound; • Lucifer yellow transmittance rate (% Lucifer Yellow) is calculated using the following formula:
# (§8) [formula] • RFUApical and RFUBasolateral are the relative fluorescence intensity of lucifer yellow at the apical and basolateral sides respectively. VApical and VBasolateral are the sample loading volumes at the apical and basolateral sides respectively (0.075 and 0.25 mL respectively).
# [1] = as above; format: in vitro ADME; parameters: Papp A→B at 120 min / Papp B→A at 120 min / efflux ratio at 120 min / Papp at 120 min: dose or concentration left out as unconfirmed; conditions: human; for efflux ratio at 120 min / Papp at 120 min: Caco-2, pH 7.4; for Papp at 120 min: read-out: Classification Permeability; for Papp A→B at 120 min / Papp B→A at 120 min: pH 7.4, pH 7.40; for Papp A→B at 120 min: Caco-2, apical to basolateral; for Papp B→A at 120 min: Caco-2, basolateral to apical
# Procedure: as §1, §2, §3, §4, §5, §6, §7, §8
# [2] = Metabolic stability in mouse liver microsomes; format: in vitro ADME; conditions: for CLint scaled at 1 µM / half-life at 1 µM / microsomal CLint at 1 µM: mouse; for CLint scaled at 1 µM / half-life at 1 µM: pH 7.4; for microsomal CLint at 1 µM: pH 7.4, read-out: CLint(mic)
# Procedure: (§9) a. Preparation of phosphate buffer: The phosphate buffer powder was dissolved in 100 mL of pure water to prepare a phosphate buffer solution with a pH of 7.4 and a concentration of 100 mM, which was stored in a 4° C. refrigerator for later use.
# (§10) b. All samples as well as the reference testosterone were dissolved in DMSO to obtain a 10 mM stock solution. The 10 mM stock solution was diluted to 100 μM with acetonitrile to obtain a working solution for later use.
# (§11) c. Preparation of liver microsome working solution: Each of the mouse, rat and human liver microsome stock solutions (at concentration of 20 mg/mL) was taken and diluted to 0.56 mg/mL with 100 mM phosphate buffer solution to obtain the liver microsome working solution.
# (§12) d. Preparation of solution: An appropriate amount of MgCl2 was weighed and used to prepare a MgCl2 solution at a concentration of 60 mM using 100 mM phosphate buffer solution. An appropriate amount of NADPH was weighed and used to prepare a NADPH solution at a concentration of 20 mM using 100 mM phosphate buffer solution. An equal volume of 60 mM MgCl2 solution was added to prepare an NADPH working solution containing 10 mM NADPH and 30 mM MgCl2. An acetonitrile solution containing 20 ng/mL tolbutamide was prepared as the stop solution.
# (§13) e. Liver microsome incubation: 2 μL of each compound and the positive drug testosterone working solution were added to 178 μL of liver microsome working solution (0.56 mg/mL), mixed gently, and pre-incubated in a vibrating constant temperature water bath pot at 37° C. for 10 min. After adding 20 μL of NADPH working solution, the mixture was placed in a vibrating constant temperature water bath pot at 37° C. and timed incubation was started for 5, 10, 20, 30 and 60 min.
# (§14) f. Stopping reaction: After the corresponding time of incubation, 400 μL of stop solution was added to stop the reaction, and then the sample was immediately shaken for 1 min. The sample was centrifuged at 13500 rpm for 10 min at 10° C. After centrifugation, the supernatant was removed, diluted with water according to the needs of each compound, and analyzed by LC-MS. For the 0-minute sample, the stop solution was first added and mixed evenly with the liver microsomes, and then the NADPH working solution was added. For the negative control sample, 20 μL of 30 mM MgCl2 solution was added instead of the NADPH working solution.
# (§15) T1/2 and CLint(mic) were calculated by the following formula.
# (§16) [formula] [formula] • CLint(mic)=0.693/T1/2/liver microsomal protein concentration during incubation (mg/mL) • CLint(ver)=CLint(mic)*liver microsomal protein (mg)/liver weight (g)*liver weight to body weight ratio
# (§17) Liver microsomal protein (mg)/liver weight (g): the value is 45 in both animal and human species.
# (§18) Liver weight to body weight ratio: the parameters for mice, rats and humans are 88, 40 and 20 g/kg respectively.
# [3] = Metabolic stability in human liver microsomes; format: in vitro ADME; conditions: for CLint scaled at 1 µM / half-life at 1 µM / microsomal CLint at 1 µM: human; for CLint scaled at 1 µM / half-life at 1 µM: pH 7.4; for microsomal CLint at 1 µM: pH 7.4, read-out: CLint(mic)
# Procedure: as §9, §10, §11, §12, §13, §14, §15, §16, §17, §18
# [4] = Metabolic stability in rat liver microsomes; format: in vitro ADME; conditions: for CLint scaled at 1 µM / half-life at 1 µM / microsomal CLint at 1 µM: rat; for CLint scaled at 1 µM / half-life at 1 µM: pH 7.4; for microsomal CLint at 1 µM: pH 7.4, read-out: CLint(mic)
# Procedure: as §9, §10, §11, §12, §13, §14, §15, §16, §17, §18
# HCT116 cells = test: Inhibitory activity on HCT116 cell proliferation (ATPlite); format: cell-based; conditions: Homo sapiens
# Procedure: Cell culture medium: RPMI1640+10% FBS (GBICO)
# Cell culture plate: 96-well plate (Shanghai Jingan Biotechnology Co., Ltd.)
# Detection kit: ATPlite 1step Luminescence (PerkinElmer)
# Detection instrument: BioTek multifunctional microplate reader
# 2. Test method: HCT116 cells in the logarithmic growth phase were seeded into a white-wall clear-bottom 96-well plate at a density of 720 cells per well, and cultured overnight in a 37° C., 5% CO2 incubator. […] After adding the drug, culturing was continued for 72 h in a 37° C., 5% CO2 incubator.
# GraphPad Prism 7.0 was used to process the data, the cell inhibition rate curve was obtained and IC50 was calculated.
# [5] = PLK1 kinase, highest concentration 1 μM, 10 points, read-out: IC50
# [6] = HCT-116, HCT116 cells, 72 h, read-out: IC50
# T1 sequence (P53350 whole entry): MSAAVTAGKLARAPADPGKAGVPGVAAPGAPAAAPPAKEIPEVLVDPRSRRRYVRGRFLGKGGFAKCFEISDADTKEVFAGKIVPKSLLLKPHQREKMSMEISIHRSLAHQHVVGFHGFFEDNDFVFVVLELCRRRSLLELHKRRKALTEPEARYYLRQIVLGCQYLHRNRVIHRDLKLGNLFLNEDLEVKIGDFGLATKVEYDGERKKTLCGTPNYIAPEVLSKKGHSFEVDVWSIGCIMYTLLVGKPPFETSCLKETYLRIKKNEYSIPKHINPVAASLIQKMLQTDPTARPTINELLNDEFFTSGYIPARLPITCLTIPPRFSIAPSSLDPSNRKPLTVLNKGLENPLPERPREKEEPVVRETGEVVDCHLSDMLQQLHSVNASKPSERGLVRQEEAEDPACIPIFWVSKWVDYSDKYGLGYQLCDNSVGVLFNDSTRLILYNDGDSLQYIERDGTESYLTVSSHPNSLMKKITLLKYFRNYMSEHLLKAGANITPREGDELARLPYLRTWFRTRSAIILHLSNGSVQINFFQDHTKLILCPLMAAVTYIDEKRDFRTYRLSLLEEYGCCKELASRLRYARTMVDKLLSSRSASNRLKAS
Structure (SMILES),Imax (PLK1 kinase),Classification Efflux transporter substrate (Caco-2 cells),efflux ratio at 120 min [1],Papp at 120 min [1],Papp A→B at 120 min [1],Papp B→A at 120 min [1],IC50 (PLK1 kinase; [5]),IC50 (HCT116 cells; [6]),also measured
CN1CCN(c2ccc(OC(F)(F)F)c(Nc3ncc4c(n3)-c3c(c(C(=O)NS(=O)(=O)C(F)(F)F)nn3CCO)CC4)c2)CC1 [Compound 8],95.96%,Likely (ERa ≥ 2.00),> 30.3,< 0.5 ×10⁻⁶ cm/s,< 0.48 ×10⁻⁶ cm/s,14.5 ×10⁻⁶ cm/s,14.7 nM,3400 nM,–
CN1CCN(c2ccc(OC(F)(F)F)c(Nc3ncc4c(n3)-c3c(c(C(=O)NNC(N)=O)nn3C)CC4)c2)CC1 [Compound 12],–,Likely (ERa ≥ 2.00),> 56.7,< 0.5 ×10⁻⁶ cm/s,< 0.264 ×10⁻⁶ cm/s,15 ×10⁻⁶ cm/s,–,–,"60 min remaining amount [2]: 26.9%; Clearance rate [2]: Medium; CLint scaled at 1 µM [2]: 163 mL/min/kg; half-life at 1 µM [2]: 33.6 min; microsomal CLint at 1 µM [2]: 41.2 µL/min/mg; 60 min remaining amount [3]: 70.8%; Clearance rate [3]: Medium; CLint scaled at 1 µM [3]: 10.4 mL/min/kg; half-life at 1 µM [3]: 119 min; microsomal CLint at 1 µM [3]: 11.6 µL/min/mg; 60 min remaining amount [4]: 7.43%; Clearance rate [4]: High; CLint scaled at 1 µM [4]: 153 mL/min/kg; half-life at 1 µM [4]: 16.3 min; microsomal CLint at 1 µM [4]: 85 µL/min/mg; IC50 (HCT116 cells; HCT-116, 72 h): 861 nM"
CN1C2CCC1CN(c1ccc(OC(F)(F)F)c(Nc3ncc4c(n3)-c3c(c(C(N)=O)nn3CCO)CC4)c1)C2 [Compound 23],98.18%,Likely (ERa ≥ 2.00),> 82.6,< 0.5 ×10⁻⁶ cm/s,< 0.28 ×10⁻⁶ cm/s,23.1 ×10⁻⁶ cm/s,3.66 nM,214 nM,–
CN1CCN(c2ccc(OC(F)(F)F)c(Nc3ncc4c(n3)-c3c(c(C(=O)NS(=O)(=O)C5CC5)nn3CCO)CC4)c2)CC1 [Compound 9],72.68%,Likely (ERa ≥ 2.00),> 25.4,< 0.5 ×10⁻⁶ cm/s,< 0.254 ×10⁻⁶ cm/s,6.43 ×10⁻⁶ cm/s,327 nM,> 10000 nM,–

# The next lines start with results.
Imax (PLK1 kinase),Classification Efflux transporter substrate (Caco-2 cells),efflux ratio at 120 min [1],Papp at 120 min [1],Papp A→B at 120 min [1],Papp B→A at 120 min [1],IC50 (PLK1 kinase; [5]),IC50 (HCT116 cells; [6]),Structure (SMILES),also measured
99.57%,Very unlikely or not (ERa < 2.00),1.32,0.5 to 2.5 ×10⁻⁶ cm/s,0.644 ×10⁻⁶ cm/s,0.851 ×10⁻⁶ cm/s,–,–,CN1CCN(c2ccc(OC(F)(F)F)c(Nc3ncc4ccc5c(C(N)=O)nn(C)c5c4n3)c2)CC1 [Compound 3],"IC50 (PLK1 kinase): 0.714 nM; 60 min remaining amount [2]: 4.32%; Clearance rate [2]: High; CLint scaled at 1 µM [2]: 409 mL/min/kg; half-life at 1 µM [2]: 13.4 min; microsomal CLint at 1 µM [2]: 103 µL/min/mg; 60 min remaining amount [3]: 7.83%; Clearance rate [3]: High; CLint scaled at 1 µM [3]: 78.7 mL/min/kg; half-life at 1 µM [3]: 15.9 min; microsomal CLint at 1 µM [3]: 87.4 µL/min/mg; 60 min remaining amount [4]: 2.74%; Clearance rate [4]: High; CLint scaled at 1 µM [4]: 505 mL/min/kg; half-life at 1 µM [4]: 4.94 min; microsomal CLint at 1 µM [4]: 281 µL/min/mg; IC50 (HCT116 cells; HCT-116, 72 h): 93 nM"
99.65%,Likely (ERa ≥ 2.00),22.1,0.5 to 2.5 ×10⁻⁶ cm/s,1.13 ×10⁻⁶ cm/s,25 ×10⁻⁶ cm/s,1.8 nM,205 nM,CN1CCN(c2ccc(OC(F)(F)F)c(Nc3ncc4c(n3)-c3c(c(C(=O)NOCCO)nn3C)CC4)c2)CC1 [Compound 11],–
99.92%,Likely (ERa ≥ 2.00),> 51.7,< 0.5 ×10⁻⁶ cm/s,< 0.48 ×10⁻⁶ cm/s,24.8 ×10⁻⁶ cm/s,1.16 nM,49 nM,CN1CCN(c2ccc(OC(F)(F)F)c(Nc3ncc4c(n3)-c3c(c(C(=O)NO)nn3CCO)CC4)c2)CC1 [Compound 10],"IC50 (HCT116 cells; HCT-116, HCT116 cells, 72 h, read-out: half inhibitory concentration): 49 nM"
